Values of other authors in US4552888A, “Ascorbic acid ethers in angiogene” (Eli Lilly and Company, priority 1983, dated 1985).

Key:
[1] = test system: proline hydroxylation in scorbutic granulomas; details: in vitro; Rokosova and Chvapil 1974; cited from earlier work
Vitamin C activity = details: orally in aqueous solution; Bezssonoff and Sacrez 1937; cited from earlier work
scorbutic guinea pigs = details: added to the diet of scorbutic guinea pigs; Gould et al. 1949; cited from earlier work
[2] = test system: lung metastases and B16 melanoma; details: mice; Folkman and Taylor; cited from earlier work

For `COC1=C(O)C(=O)O[C@@H]1[C@@H](O)CO` [3-methylascorbic acid], the “stimulation of proline hydroxylation” value [1] is given as “had an effect in vitro”, the “Vitamin C activity” value (Vitamin C activity) is given as “active” and the “vitamin C activity relative to ascorbic acid” value (scorbutic guinea pigs) is given as “about 1/50”.

In the case of protamine, the “inhibition of lung metastases and B16 melanoma” value [2] is listed as “inhibited lung metastases and B16 melanoma in mice”.
